# Tests used:
# skinned trabeculae = test: Force-[Ca2+] relation in skinned trabeculae; format: cell-based, rat; conditions: after skinning; NCA
# Experimental: FIG. 2. […] (A) Steady-state force-[Ca^2+]i relationship in intact trabeculae before and after NCA (20 μmol/L). n=5. See text for details. (B) Force-[Ca^2+] relation in skinned trabeculae before and after NCA (n=6). […] The muscles were treated with DTT (5 mM) for 10 min after 1st force-[Ca^2+] was obtained in the presence of NCA alone, and a second force-[Ca^2+] relation was obtained in the presence of NCA+DTT. n=3. (D) For comparison, steady-state force-[Ca^2+]i relationship in intact trabeculae before and after AS (500 μmol/L). n=5.
# To further test this hypothesis, steady-state force-[Ca^2+]i relations were obtained by tetanizing the muscles in the presence of ryanodine.
# MLC1 = target: T1, MLC1 (Rattus norvegicus, UniProt P02600); test: 2D gel shift western blot of skeletal myofibrils; format: biochemical; conditions: skeletal samples
# T1 construct: using 10 μg of skeletal or cardiac myofibrils; from tissue; host or cells: skeletal muscle myofibrils
# Source text: FIG. 6. MLC1 Cys81 necessary for increase in Fmax induced by treatment with HNO donors. (a) Sequence alignment comparing isoforms of rat cardiac (SEQ ID NO:16) and skeletal MLC1 (SEQ ID NO:17) in the region surrounding cardiac Cys81. (b) Steady-state force-[Ca^2+]i relations in control (o) versus NCA-treated (•) from cardiac or skeletal trabeculae indicating loss of increase in maximum force with loss of Cys81 in skeletal isoform with NCA (n=5, each group). (c) 2D Gel shift assay (non-reduced, NR and reduced, DTT) using 10 μg of skeletal or cardiac myofibrils indicating loss of higher molecular weight forms of MLC1 in skeletal HNO treated preparations while maintaining higher molecular weight form of TM (n=3).
# Gel shift assay. 10 μg of rat myofibrils/treatment were diluted to 0.5 μg/μl in HEN including 0.1% (w/v) SDS and exposed to a treatment for 20 min at 37° C. Samples were diluted to 0.1 ug/ul in 1×LSD sample buffer, treated with 0, 5 or 100 mM DTT and separated by SDS PAGE. Proteins were silver stained or transferred to nitrocellulose and immunoblotted with primary antibodies for tropomyosin sarcomeric (CH1, Sigma-Aldrich Co., St. Louis, Mo., USA), actin (AC-40, Sigma-Aldrich Co., St. Louis, Mo., USA), myosin light chain 1 (MLM527, Abcam, Cambridge, Mass., USA) or myosin heavy chain (3-48, Abcam, Cambridge, Mass., USA). […]
# T1 sequence (P02600 whole entry): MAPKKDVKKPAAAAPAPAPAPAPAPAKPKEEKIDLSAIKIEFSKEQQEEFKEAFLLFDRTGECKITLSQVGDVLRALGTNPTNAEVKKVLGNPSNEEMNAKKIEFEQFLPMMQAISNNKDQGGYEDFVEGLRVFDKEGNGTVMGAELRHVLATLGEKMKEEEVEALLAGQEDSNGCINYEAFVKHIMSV
smiles,measurement,setting,value
"CC(=O)OC1(N=O)CCCCC1 [NCA, 1-nitrosocyclohexylacetate]",Hill,skinned trabeculae,2.39±1.02
same,higher molecular weight forms of MLC1,MLC1,absence of higher molecular weight forms of MLC1

# Source: US20120231482A1, “METHOD, KIT OR DIAGNOSTIC FOR THE DETECTION OF REAGENTS WHICH INDUCE ALTERED CONTRACTILITY” (THE JOHNS HOPKINS UNIVERSITY, priority 2009, published 2012)
